Laboratory results from patent publication US4728659A, “Aminomethyl derivatives and preparation process thereof as well as platelet aggregation inhibitors containing same” (SS Pharmaceutical Co., Ltd., priority 1984, dated 1988).
≈ marks a conversion by molar mass, not a printed value.

Tests used:
[1] = system: platelet aggregation by ADP; test: Inhibition of aggregation of rabbit platelets (PRP) by ADP; format: cell-based; conditions: Oryctolagus cuniculus, ADP 3 μM, compound added 2 minutes before agent, read-out: 50% Platelet Aggregation Inhibitory Concentration (IC50), ADP
Description: (§1) Blood, which had been added with sodium citrate, was collected from a male rabbit (body weight: 3 Kg), which was then subjected suitably to centrifugation so that platelet-rich plasma (PRP) and platelet-poor plasma (PPP) were obtained. Inhibitory effects of certain sample compounds of this invention against aggregation by ADP (3 μM) and arachidonic acid (1 mM) were thereafter tested by a method known per se in the art. Each sample compound was dissolved in 5% dimethylsulfoxide (DMSO) and Tween 80 (trade mark) and was then added to PRP 2 minutes before addition of each of the aggregation agents to the PRP.

[2] = system: platelet aggregation by arachidonic acid; test: Inhibition of aggregation of rabbit platelets (PRP) by arachidonic acid; format: cell-based; conditions: Oryctolagus cuniculus, arachidonic acid 1 mM, compound added 2 minutes before agent, read-out: 50% Platelet Aggregation Inhibitory Concentration (IC50), Arachidonic acid
Description: as §1

[3] = Acute toxicity, intraperitoneal, mice; format: in vivo; conditions: for abnormality observed / survival of mice: 200 mg/Kg intraperitoneal, five ddY male mice, after 7 days; for LD50 at 168 h: mouse, in vivo, ip
Description: Each of certain sample compounds (which had been obtained in Examples 6, 7, 10 and 15-17, which will be given herein) was dissolved in water and was then administered intraperitoneally at a dose of 200 mg/Kg to a group of five ddY male mice. Those mice were fed for 7 days while observing them.

[4] = system: platelet aggregation by collagen; test: Platelet aggregation by collagen in PRP after oral administration to rats (ex vivo); conditions: 30 mg/Kg oral, male Wister rat, blood collected 2 hours after administration, 100 μg/ml collagen, read-out: Percent inhibition against aggregation, collagen
Description: (§2) Each sample compound was orally administered at 30 mg/Kg to a male Wister rat (body weight: 220 g) which had fasted for 24 hours. Platelet-rich plasma was obtained from blood which had been collected 2 hours after the administration and added with sodium citrate. Changes in platelet aggregation upon addition of 60 μM of ADP or 100 μg/ml of collagen were observed. The number of platelets was adjusted to 6×10^5 platelets/mm^3 for aggregation by ADP and to 3×10^5 platelets/mm^3 for aggregation by collagen. Each of the sample compounds was dissolved in DMSO+Tween 80 (trade mark) prior to its administration.

[5] = system: platelet aggregation by ADP; test: Platelet aggregation by ADP in PRP after oral administration to rats (ex vivo); conditions: 30 mg/Kg oral, male Wister rat, blood collected 2 hours after administration, 60 μM ADP, read-out: Percent inhibition against aggregation, ADP
Description: as §2

[6] = intraperitoneal, ddY male mice, 7 days observation

Row | SMILES | IC50 [1] | IC50 [2] | abnormality observed [3] | survival of mice [3] | LD50 at 168 h [3, 6] | inhibition at 30 mg/kg [4] | LD50 at 168 h [3] | inhibition at 30 mg/kg [5]
1 | CCN(CC)CC#CC(=O)c1ccc(C)cc1 [Example 1, N-[4-(p-Methylphenyl)-4-oxo-2-butynyl]-N,N-diethylamine] | 7 µg/mL (≈ 30.5 µM) | 2.5 µg/mL (≈ 10.9 µM) | – | – | – | – | – | –
2 | CCN(CC)CC#CC(=O)c1ccc(OC)cc1 [Example 4] | 9 µg/mL (≈ 36.7 µM) | 3.6 µg/mL (≈ 14.7 µM) | – | – | – | – | – | –
3 | CCN(CC)CC#CC(OC(=O)c1cccnc1)c1ccccc1 (centres unmarked) [Example 6, N-(4-Nicotinoyloxy-4-phenyl-2-butynyl)-N,N-diethylamine] | – | – | no abnormality was observed | all the mice were still alive | > 200 mg/kg | – | – | –
4 | CCN(CC)CC#CC(OC(=O)c1cccnc1)c1ccc(C)cc1 (centres unmarked) [Example 7] | – | – | no abnormality was observed | all the mice were still alive | – | 37.6% | > 200 mg/kg | 20.1%
5 | CCN(CC)CC#CC(OC(=O)c1cccnc1)c1ccc(OC)cc1 (centres unmarked) [Example 10] | – | – | no abnormality was observed | all the mice were still alive | – | – | > 200 mg/kg | –
6 | CCN(CC)C/C=C/C(OC(=O)c1cccnc1)c1ccc(C)cc1 (centres unmarked) [Example 13] | – | – | – | – | – | 31.5% | – | 30.5%
7 | CN(C)CC#CC(=O)c1ccccc1 [Example 15, N-(4-Phenyl-4-oxo-2-butynyl)-N,N-dimethylamine] | 21 µg/mL (≈ 112 µM) | 4.7 µg/mL (≈ 25.1 µM) | – | – | > 200 mg/kg | – | – | –
8 | CCCN(CC)CC#CC(=O)c1ccccc1 [Example 16, N-(4-Phenyl-4-oxo-2-butynyl)-N-ethyl-N-n-propylamine] | 18 µg/mL (≈ 78.5 µM) | 4.3 µg/mL (≈ 18.8 µM) | – | – | > 200 mg/kg | – | – | –
9 | CCN(CC)CC#CC(=O)c1ccccc1 [Example 17] | 20 µg/mL (≈ 92.9 µM) | 4.5 µg/mL (≈ 20.9 µM) | – | – | – | – | > 200 mg/kg | –
